Biological target: T1, CsDOP1 (Chilo suppressalis, UniProt A0A0K0QVU3)
T1 construct: gene DOP1; receptor in pcDNA3, stably expressed in HEK 293 cells; GPCR coupled to Gs (cAMP increase)
T1 sequence (A0A0K0QVU3 1-409): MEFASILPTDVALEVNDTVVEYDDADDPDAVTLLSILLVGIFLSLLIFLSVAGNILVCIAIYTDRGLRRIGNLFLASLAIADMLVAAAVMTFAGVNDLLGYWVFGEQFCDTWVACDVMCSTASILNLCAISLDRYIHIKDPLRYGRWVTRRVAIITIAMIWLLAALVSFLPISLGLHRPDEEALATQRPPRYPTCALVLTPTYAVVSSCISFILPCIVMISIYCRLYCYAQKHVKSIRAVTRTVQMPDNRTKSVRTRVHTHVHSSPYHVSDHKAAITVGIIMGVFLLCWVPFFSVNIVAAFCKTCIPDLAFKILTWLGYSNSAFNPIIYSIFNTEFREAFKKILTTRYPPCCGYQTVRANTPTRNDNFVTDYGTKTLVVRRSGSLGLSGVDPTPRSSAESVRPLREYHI
Assay: intracellular cAMP accumulation
Assay type: cell-based

Work on NCCc1ccc(O)c(O)c1 [dopamine] yielded an EC50 of 1.93 nM.

Reference: paper PMC4503959, “Dopamine modulates hemocyte phagocytosis via a D1-like receptor in the rice stem borer, Chilo suppressalis” (Scientific Reports, 2015)
